Key:
otitis externa [1] = assay: study on patients suffering otitis externa (photodisinfection, Periowave laser); assay type: in vivo, human; details: about 0.01 wt % methylene blue by cotton swab, 665-675 nm, about 3 to 5 minutes (3-5 one minute cycles); many patients
Protocol: A study was conducted on patients suffering otitis externa. During the study, a photosensitizing composition comprising of methylene blue at a concentration of about 0.01 wt % was applied using a cotton swab to the treatment site as shown in FIG. 37. Thereafter and referring to FIGS. 38-39, light at a wavelength range from about 665 nm to about 675 nm was applied to the photosensitizing composition located within the treatment site 64 for a period from about 3 minutes to about 5 minutes (3-5 repetitive one minute cycles) using the Periowave™ laser light system.

E. fecalis = assay: photodisinfection of E. fecalis biofilms in vitro (Periowave laser); assay type: cell-based, Enterococcus fecalis; details: methylene blue and a low power laser
From the text: (§1) Photodisinfection treatments using methods contemplated by the present invention have been tested against MRSA, Escherichia coli (E. coli), and Enterococcus fecalis (E. fecalis) in vitro and reached high levels of disinfection in within seconds to one minute. Photosensitizing composition comprising of methylene blue at various concentrations ranging from about 0.005 wt % to 0.1 wt % was applied to biofilms of MRSA, E. coli and E. fecalis for about ten seconds. These biofilms were then illuminated by a laser light system at a wavelength of about 665 nm to about 675 nm for a period from about 0 seconds to about 60 seconds (e.g., accumulated energy level of about 0 J/cm^2 to about 9 J/cm^2). The laser light system used was the Periowave™ system which includes a low-intensity laser with power at about 240 mW and the optical probe described in PCT Patent Publication No. WO2006115761.

E. coli [2] = assay: photodisinfection of E. coli biofilms in vitro (Periowave laser); assay type: cell-based, Escherichia coli
From the text: as §1

MRSA [3] = assay: SEM evaluation of MRSA biofilms after photodisinfection; assay type: cell-based, Methicillin-resistant Staphylococcus aureus; details: about 0.1 wt % methylene blue, about 10 seconds contact, 665-675 nm, about 30 seconds
Protocol: Biofilms heavily colonized with one to four layers of MRSA organisms were contacted with a photosensitizing composition comprising methylene blue at a concentration of about 0.1 wt % for about 10 seconds and then illuminated at a wavelength of about 665 nm to about 675 nm for a period from about 30 seconds using the Periowave™ laser. Thereafter, these biofilms and the controlled MRSA biofilms (e.g., no photodisinfection treatment) were incubated overnight in 0.9 wt % saline and then fixed in 10 wt % Formalin for scanning electron microscope (SEM) evaluation.

E. coli [4] = assay: SEM evaluation of E. coli biofilms after photodisinfection; assay type: cell-based, Escherichia coli; details: about 0.1 wt % methylene blue, about 10 seconds contact, 665-675 nm, about 30 seconds
Protocol: Biofilms heavily colonized with one to three layers of Escherichia coli (E. coli) organisms were contacted with a photosensitizing composition comprising methylene blue at a concentration of about 0.1 wt % for about 10 seconds and then illuminated at a wavelength of about 665 nm to about 675 nm for a period from about 30 seconds using the Periowave™ laser. Thereafter, these biofilms and the controlled E. coli biofilms (e.g., no photodisinfection treatment) were incubated for three hours in 0.9% saline and then fixed in 10% Formalin for scanning electron microscope (SEM) evaluation.

MRSA [5] = assay: photodisinfection of MRSA biofilms in vitro (Periowave laser); assay type: cell-based, Methicillin-resistant Staphylococcus aureus
From the text: as §1

otitis externa [6] = assay: photodisinfection of otitis externa treatment site (Examples V to VII); assay type: in vivo
Protocol: A photosensitizing composition comprising of methylene blue at a concentration of about 0.1 wt % is applied to the otitis externa treatment site. Light at a wavelength range from about 650 nm to about 680 nm is applied to the photosensitizing composition located within the otitis externa treatment site for a period from about 6 minutes to about 10 minutes using a laser with power at about 80 mW. The otitis externa was ameliorated.
A photosensitizing composition comprising of methylene blue at a concentration range of from about 0.001 wt % to about 0.1 wt % is applied to the otitis externa treatment site. Light at a wavelength range from about 650 nm to about 680 nm is applied to the photosensitizing composition located within the treatment site for a period from about 1 minute to about 20 minutes using a laser with power at a range from about 50 mW to about 300 mW. The otitis externa was ameliorated.
A photosensitizing composition comprising of toluidine blue at a concentration range of from about 0.001% wt % to about 0.1 wt % is applied to the otitis externa treatment site. Light at a wavelength range from about 620 nm to about 650 nm is applied to the photosensitizing composition located within the otitis externa treatment site for a period from about 1 minute to about 20 minutes using a laser with power at a range from about 50 mW to about 300 mW. The otitis externa was ameliorated.
For Examples V to VII, it was shown that there is a general inverse relationship between (1) the photosensitizer concentration and (2) the photodisinfection treatment time and/or the amount of power required for the light source. For example, higher concentration of photosensitizer requires less treatment time and/or lower light source power. Conversely, lower concentration of photosensitizer requires longer treatment time and/or higher light source power. Also, less treatment time requires higher concentration of photosensitizer and/or higher light source power.

[7] = at least 0.02 wt % methylene blue, about ten seconds contact, about 665-675 nm laser about 240 mW for at least 15 seconds (at least 2.25 J/cm^2)
[8] = methylene blue and a low power laser

Row | SMILES | outcome of otitis externa (otitis externa [1]) | elimination of E. Fecalis by photodisinfection (E. fecalis) | reduction of E. coli (E. coli [2]; [7]) | elimination of E. coli by photodisinfection (E. coli [2]; [8]) | reduction of MRSA in SEM photograph (FIG. 34 vs FIG. 33) (MRSA [3]) | reduction of E. coli in SEM photograph (FIG. 36 vs FIG. 35) (E. coli [4]) | reduction of MRSA (MRSA [5]; [7]) | elimination of MRSA by photodisinfection (MRSA [5]; [8]) | outcome of otitis externa (otitis externa [6]; Example V: about 0.1 wt %, 650-680 nm, about 6 to 10 minutes, laser about 80 mW) | outcome of otitis externa (otitis externa [6]; Example VI: about 0.001 to 0.1 wt %, 650-680 nm, about 1 to 20 minutes, laser about 50 to 300 mW) | outcome of otitis externa (otitis externa [6]; Example VII: about 0.001 to 0.1 wt %, 620-650 nm, about 1 to 20 minutes, laser about 50 to 300 mW)
1 | CN(C)c1ccc2nc3ccc(=[N+](C)C)cc-3sc2c1 [methylene blue] | ameliorated | effectively eliminated | at least three | effectively eliminated | substantial reduction of MRSA | substantial reduction of E. coli | at least three | effectively eliminated | ameliorated | ameliorated | 
2 | Cc1cc2nc3ccc(N(C)C)cc3[s+]c2cc1N.[Cl-] [toluidine blue] |  |  |  |  |  |  |  |  |  |  | ameliorated
